The source of these data is ChEMBL document CHEMBL6092206, “Discovery and Characterization of BAY-184: A New Potent and Selective Acylsulfonamide-Benzofuran In Vivo-Active KAT6AB Inhibitor” (J Med Chem, 2024).

pIC50: −log10 of the molar value. Calls of active or inactive are those of the source. No cut-off for these calls is given here. Where only a bound is given, the exact number is not on record here.

The nature of data set [1]: Stability of compound in PBS buffer at pH 7 measured for 24 hrs by HPLC analysis. The format is physicochemical. As to conditions: pH 7, 24 h.
Data set [2] concerns the target Histone acetyltransferase KAT6A (Homo sapiens, UniProt Q92794). Briefly: Inhibition of KAT6A in human ZR-75-1 cells assessed as reduction in H3K23ac level at 1 uM measured after 144 hrs by Western blot analysis. The format is cell-based.
Data set [3] is described as follows: Antiproliferative activity against human KPL-1 cells assessed as inhibition of cell growth incubated for 6 days by alamar blue staining based assay relative to control. The format is functional. As to conditions: time 6 day. For orientation: The colour change of resazurin is a common sign of viable cells or microbes.
Another data set deals with HCC1428. Briefly: Antiproliferative activity against human HCC1428 cells assessed as inhibition of cell growth incubated for 6 days by alamar blue staining based assay relative to control. The format is functional. As to conditions: time 6 day.
The subject of another data set is MFM-223. Briefly: Antiproliferative activity against human MFM-223 cells assessed as inhibition of cell growth incubated for 6 days by alamar blue staining based assay relative to control. The format is functional. As to conditions: time 6 day.
Another data set has as its system MDA-MB-436. Description: Antiproliferative activity against human MDA-MB-436 cells assessed as inhibition of cell growth incubated for 6 days by alamar blue staining based assay relative to control. As to conditions: time 6 day. The format is functional.
The test system of the next data set is MDA-MB-231. Description: Antiproliferative activity against human MDA-MB-231 cells assessed as inhibition of cell growth incubated for 6 days by alamar blue staining based assay relative to control. As to conditions: time 6 day. The format is functional.
A short description of data set [4]: Metabolic stability in rat liver microsome assessed as clearance measured for 2 to 60 mins by LC-MS/MS analysis. The format is ADME. As to conditions: microsomes, time 2-60 min. (In general: Liver microsomes are a subcellular fraction often used to study metabolism.)
Data set [5] in a line: Metabolic stability in mouse liver microsome assessed as clearance measured for 2 to 60 mins by LC-MS/MS analysis. The format is ADME. As to conditions: microsomes, time 2-60 min.
The nature of data set [6]: Metabolic stability in rat hepatocyte assessed as clearance measured for 2 to 90 mins by LC-MS/MS analysis. The format is ADME, cell-based. As to conditions: hepatocytes, time 2-90 min.
Data set [7] in a line: Metabolic stability in mouse hepatocyte assessed as clearance measured for 2 to 90 mins by LC-MS/MS analysis. The format is ADME, cell-based. As to conditions: hepatocytes, time 2-90 min.
The nature of data set [8]: Metabolic stability in dog hepatocyte assessed as clearance measured for 2 to 90 mins by LC-MS/MS analysis. The format is ADME, cell-based, Canis lupus familiaris. As to conditions: hepatocytes, time 2-90 min.
A short description of data set [9]: Metabolic stability in mouse liver microsome assessed as maximum bioavailability of the drug measured for 2 to 60 mins by LC-MS/MS analysis. The format is ADME. As to conditions: liver microsomes, time 2-60 min, read-out: Fmax.
A short description of data set [10]: Clearance in male Wistar rat at 0.5 mg/kg, iv or 1 mg/kg, po measured upto 24 hrs by LC-MS/S analysis. The format is ADME, organism-based. As to conditions: in vivo.
Data set [11] is described as follows: Half life in male Wistar rat at 0.5 mg/kg, iv measured upto 24 hrs by LC-MS/S analysis. The format is ADME, organism-based. As to conditions: in vivo.
A short description of data set [12]: Half life in mouse at 0.5 mg/kg, iv. The format is ADME, organism-based. As to conditions: in vivo.
Data set [13] in a line: AUC in mouse at 0.5 mg/kg, iv. The format is ADME, organism-based. As to conditions: in vivo.
The nature of data set [14]: Plasma protein binding in rat assessed as unbound fraction equilibrium dialysis based LC-MS/MS analysis. The format is ADME, cell-free. (In equilibrium dialysis free small molecules cross a membrane that holds back macromolecules.)
Data set [15] in a line: Mutagenicity in Salmonella typhimurium TA1535 by Ames test. The format is toxicity. As to conditions: salmonella enterica subsp. enterica serovar typhimurium.
The nature of data set [16]: Mutagenicity in Salmonella typhimurium TA1537 by Ames test. As to conditions: salmonella enterica subsp. enterica serovar typhimurium. The format is toxicity.
The nature of data set [17]: Mutagenicity in Escherichia coli WP2 uvrA by Ames test. The format is toxicity.
A short description of data set [18]: Mutagenicity in Salmonella typhimurium TA98 in presence of S9 fraction by Ames test. The format is toxicity, subcellular. As to conditions: salmonella enterica subsp. enterica serovar typhimurium.
Data set [19] deals with T1, Histone acetyltransferase KAT8 (Homo sapiens, UniProt Q9H7Z6).
T1 sequence (Q9H7Z6 whole entry): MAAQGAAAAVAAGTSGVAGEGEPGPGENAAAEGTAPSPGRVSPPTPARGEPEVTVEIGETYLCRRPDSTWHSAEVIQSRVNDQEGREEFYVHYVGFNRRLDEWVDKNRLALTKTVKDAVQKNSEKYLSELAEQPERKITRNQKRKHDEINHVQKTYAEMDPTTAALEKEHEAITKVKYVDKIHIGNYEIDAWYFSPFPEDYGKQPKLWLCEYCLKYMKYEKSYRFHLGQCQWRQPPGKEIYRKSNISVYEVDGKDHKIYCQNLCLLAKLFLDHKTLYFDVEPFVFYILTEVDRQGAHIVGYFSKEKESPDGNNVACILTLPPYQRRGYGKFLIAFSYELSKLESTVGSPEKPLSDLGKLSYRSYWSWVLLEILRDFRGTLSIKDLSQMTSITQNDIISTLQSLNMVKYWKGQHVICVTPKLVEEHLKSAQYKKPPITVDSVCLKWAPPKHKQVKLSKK
Briefly: Inhibition of full length N-terminal GST-tagged human recombinant KAT8 (174 to 449 residues) using H4-derived peptide as substrate incubated for 60 mins in presence of AcCoA by TR-FRET assay. Also on record: species or system Sf9.

Data set [20] addresses Histone acetyltransferase p300 (Homo sapiens, UniProt Q09472). Description: Inhibition of GST-tagged human recombinant p300 (965 to 1810 residues) expressed in Sf9 insect cells using H3-derived peptide as substrate incubated for 30 mins in presence of AcCoA by TR-FRET assay.

Histone acetyltransferase KAT6A, sequence (Q92794 whole entry, looked up): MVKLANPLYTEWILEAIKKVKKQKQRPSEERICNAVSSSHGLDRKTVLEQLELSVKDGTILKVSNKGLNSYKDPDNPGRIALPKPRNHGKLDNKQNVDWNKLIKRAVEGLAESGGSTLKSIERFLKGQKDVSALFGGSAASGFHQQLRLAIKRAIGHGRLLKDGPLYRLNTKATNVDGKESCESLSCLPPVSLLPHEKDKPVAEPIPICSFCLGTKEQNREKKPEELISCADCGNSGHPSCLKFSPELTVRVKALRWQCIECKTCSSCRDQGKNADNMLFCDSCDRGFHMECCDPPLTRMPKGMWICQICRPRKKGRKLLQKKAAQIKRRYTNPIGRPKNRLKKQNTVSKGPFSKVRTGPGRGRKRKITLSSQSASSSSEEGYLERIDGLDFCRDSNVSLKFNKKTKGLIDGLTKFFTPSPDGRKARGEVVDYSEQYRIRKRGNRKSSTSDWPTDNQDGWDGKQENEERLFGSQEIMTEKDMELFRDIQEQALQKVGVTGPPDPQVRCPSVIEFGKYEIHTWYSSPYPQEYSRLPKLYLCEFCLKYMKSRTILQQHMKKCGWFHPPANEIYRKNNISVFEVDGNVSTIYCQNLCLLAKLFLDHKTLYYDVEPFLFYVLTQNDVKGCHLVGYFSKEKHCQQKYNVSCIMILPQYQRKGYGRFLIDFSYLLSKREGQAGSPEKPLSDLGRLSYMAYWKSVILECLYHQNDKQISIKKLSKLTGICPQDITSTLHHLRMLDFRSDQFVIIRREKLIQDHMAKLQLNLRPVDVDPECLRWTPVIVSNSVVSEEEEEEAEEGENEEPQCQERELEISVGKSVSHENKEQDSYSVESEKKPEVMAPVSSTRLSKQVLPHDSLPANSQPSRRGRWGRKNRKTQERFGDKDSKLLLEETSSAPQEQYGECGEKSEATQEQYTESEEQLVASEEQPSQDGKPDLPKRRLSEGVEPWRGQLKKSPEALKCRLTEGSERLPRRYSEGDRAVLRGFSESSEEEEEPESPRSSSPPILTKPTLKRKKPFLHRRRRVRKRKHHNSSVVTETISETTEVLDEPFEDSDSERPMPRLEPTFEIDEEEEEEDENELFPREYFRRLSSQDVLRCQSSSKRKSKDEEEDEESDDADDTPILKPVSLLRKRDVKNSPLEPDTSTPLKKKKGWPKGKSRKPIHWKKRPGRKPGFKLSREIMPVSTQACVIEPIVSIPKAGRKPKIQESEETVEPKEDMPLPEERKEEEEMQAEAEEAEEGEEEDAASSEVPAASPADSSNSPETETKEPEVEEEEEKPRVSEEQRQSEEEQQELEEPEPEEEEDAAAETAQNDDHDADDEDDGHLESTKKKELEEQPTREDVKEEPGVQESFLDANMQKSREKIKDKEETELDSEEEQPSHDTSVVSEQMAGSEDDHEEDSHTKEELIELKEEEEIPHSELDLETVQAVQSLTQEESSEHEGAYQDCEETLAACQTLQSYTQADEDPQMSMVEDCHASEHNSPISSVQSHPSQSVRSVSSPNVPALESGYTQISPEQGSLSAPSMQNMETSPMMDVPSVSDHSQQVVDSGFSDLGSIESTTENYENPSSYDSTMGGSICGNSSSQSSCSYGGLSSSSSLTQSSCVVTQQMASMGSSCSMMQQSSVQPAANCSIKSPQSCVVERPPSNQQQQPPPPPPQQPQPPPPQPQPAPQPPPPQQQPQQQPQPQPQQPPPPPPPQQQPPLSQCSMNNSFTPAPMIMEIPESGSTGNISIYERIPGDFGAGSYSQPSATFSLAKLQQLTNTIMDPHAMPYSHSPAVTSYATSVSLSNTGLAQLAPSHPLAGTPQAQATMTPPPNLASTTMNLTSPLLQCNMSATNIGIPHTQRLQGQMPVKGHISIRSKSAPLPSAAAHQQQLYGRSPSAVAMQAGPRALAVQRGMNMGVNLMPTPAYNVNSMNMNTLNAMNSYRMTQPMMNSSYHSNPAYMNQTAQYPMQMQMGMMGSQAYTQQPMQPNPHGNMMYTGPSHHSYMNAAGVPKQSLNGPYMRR
Histone acetyltransferase p300, sequence (Q09472 whole entry, the tested form may be a part): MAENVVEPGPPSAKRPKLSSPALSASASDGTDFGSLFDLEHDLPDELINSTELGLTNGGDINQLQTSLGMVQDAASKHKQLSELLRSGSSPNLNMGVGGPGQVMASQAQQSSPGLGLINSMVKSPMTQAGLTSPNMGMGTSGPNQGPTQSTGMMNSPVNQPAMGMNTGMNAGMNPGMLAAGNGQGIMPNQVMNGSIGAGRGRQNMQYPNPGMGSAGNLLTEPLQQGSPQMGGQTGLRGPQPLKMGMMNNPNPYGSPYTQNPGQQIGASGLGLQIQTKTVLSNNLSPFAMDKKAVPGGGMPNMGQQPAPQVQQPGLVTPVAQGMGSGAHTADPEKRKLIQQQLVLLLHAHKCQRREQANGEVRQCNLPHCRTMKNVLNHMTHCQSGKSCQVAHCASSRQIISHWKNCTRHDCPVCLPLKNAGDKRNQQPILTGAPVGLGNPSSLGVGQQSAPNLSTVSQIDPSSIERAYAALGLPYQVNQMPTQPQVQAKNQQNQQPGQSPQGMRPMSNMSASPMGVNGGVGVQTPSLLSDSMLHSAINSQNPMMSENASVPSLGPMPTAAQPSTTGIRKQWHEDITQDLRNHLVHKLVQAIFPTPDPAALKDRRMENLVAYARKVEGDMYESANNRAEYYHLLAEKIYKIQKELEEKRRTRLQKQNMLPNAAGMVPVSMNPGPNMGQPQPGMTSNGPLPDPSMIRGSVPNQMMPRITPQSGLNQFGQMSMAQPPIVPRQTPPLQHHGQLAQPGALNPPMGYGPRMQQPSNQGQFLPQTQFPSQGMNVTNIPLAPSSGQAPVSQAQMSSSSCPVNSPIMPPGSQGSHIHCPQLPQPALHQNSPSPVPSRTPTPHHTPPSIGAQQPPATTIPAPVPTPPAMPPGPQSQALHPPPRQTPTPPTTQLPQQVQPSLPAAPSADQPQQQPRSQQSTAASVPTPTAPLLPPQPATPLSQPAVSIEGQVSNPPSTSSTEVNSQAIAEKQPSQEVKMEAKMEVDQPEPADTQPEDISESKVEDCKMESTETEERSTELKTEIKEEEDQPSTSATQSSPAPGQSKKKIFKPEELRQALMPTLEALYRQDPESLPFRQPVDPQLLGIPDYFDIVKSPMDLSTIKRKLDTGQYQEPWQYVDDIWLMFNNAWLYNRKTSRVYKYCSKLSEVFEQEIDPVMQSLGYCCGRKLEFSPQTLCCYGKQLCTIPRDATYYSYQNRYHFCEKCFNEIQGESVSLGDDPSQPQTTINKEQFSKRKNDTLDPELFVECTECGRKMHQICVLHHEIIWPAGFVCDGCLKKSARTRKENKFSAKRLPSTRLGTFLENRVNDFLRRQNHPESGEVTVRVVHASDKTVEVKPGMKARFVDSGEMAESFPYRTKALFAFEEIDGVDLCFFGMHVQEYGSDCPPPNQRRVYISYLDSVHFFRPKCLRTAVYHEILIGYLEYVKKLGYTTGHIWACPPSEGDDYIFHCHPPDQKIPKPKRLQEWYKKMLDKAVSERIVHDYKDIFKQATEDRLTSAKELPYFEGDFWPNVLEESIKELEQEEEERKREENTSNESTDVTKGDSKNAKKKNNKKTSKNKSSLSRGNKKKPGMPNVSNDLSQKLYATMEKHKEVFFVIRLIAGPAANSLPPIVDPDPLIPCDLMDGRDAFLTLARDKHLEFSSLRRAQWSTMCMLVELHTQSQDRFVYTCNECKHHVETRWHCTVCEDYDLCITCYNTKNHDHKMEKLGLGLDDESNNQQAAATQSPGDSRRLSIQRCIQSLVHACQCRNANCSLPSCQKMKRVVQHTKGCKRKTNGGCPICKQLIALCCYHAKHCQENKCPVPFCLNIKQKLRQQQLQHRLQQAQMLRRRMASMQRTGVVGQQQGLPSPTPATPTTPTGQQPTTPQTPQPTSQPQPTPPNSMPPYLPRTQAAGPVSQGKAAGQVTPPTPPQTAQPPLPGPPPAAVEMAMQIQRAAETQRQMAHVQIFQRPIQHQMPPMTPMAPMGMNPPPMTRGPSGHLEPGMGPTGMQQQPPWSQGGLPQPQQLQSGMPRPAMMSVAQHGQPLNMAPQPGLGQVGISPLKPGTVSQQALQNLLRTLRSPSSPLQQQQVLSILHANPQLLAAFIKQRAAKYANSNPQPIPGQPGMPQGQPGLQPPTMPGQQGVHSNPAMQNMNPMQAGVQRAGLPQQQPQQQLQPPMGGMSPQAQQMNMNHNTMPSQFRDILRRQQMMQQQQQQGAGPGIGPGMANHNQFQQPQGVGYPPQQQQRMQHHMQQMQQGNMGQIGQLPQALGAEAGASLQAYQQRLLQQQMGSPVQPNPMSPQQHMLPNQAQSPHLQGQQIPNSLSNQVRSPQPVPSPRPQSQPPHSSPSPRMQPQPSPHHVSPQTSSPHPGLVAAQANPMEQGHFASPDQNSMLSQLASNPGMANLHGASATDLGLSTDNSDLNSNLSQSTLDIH

Consider `CN(C)c1ccc2cc(C(=O)NS(=O)(=O)c3ccccc3-c3ccccc3)oc2c1`, for which the Stability result in data set [1] is reported as “Stable”. Moreover, in [2], the inhibition entry is “inactive”. Moreover, the “inhibition (INH)” value in [3] came out at 30%; in the data set with HCC1428, 51%; in the data set with MFM-223, 61%; in the data set on MDA-MB-436 it was 0%; with MDA-MB-231, 0%. In addition, the CLH stood at 3 L/h/kg in data set [4]; 3.8 L/h/kg in [5]; 2.5 L/h/kg in data set [6]; 3.6 L/h/kg in data set [7]; 0.99 L/h/kg in data set [8]. For the same molecule, in data set [9], the Fh came out at 29%. Besides, the clearance in [10] is 0.34 L/h/kg. The same molecule yielded a t1/2 in data set [11] of 0.94 h. In data set [12], the half-life was 1.3 h. Further, in data set [13], the AUC came out at 2.5 kg·h/L. In addition, the Fu in [14] is reported as 0.048%. The Activity entry in [15], in data set [16], in data set [17] and in [18] was “Non-toxic” throughout. Further, the pIC50 in data set [19] and in [20] was < 5.00 throughout.

The term half-life denotes how long it takes for the measured level to halve. Read a high half-life as slow decline. By pIC50 is commonly meant −log10 of the IC50, conventionally taken in molar units.
